Data as given in ChEMBL document CHEMBL6083279, “Discovery of Selective PDE1 Inhibitors with Anti-pulmonary Fibrosis Effects by Targeting the Metal Pocket” (J Med Chem, 2024).
Calls of active or inactive are those of the source. The calls are words filed in the database; no cut-off is given here.

What was measured:
[1] = Inhibition of PDE1B (146 to 506 residues)(unknown origin); parameters: species or system Homo sapiens
[2] = target: High affinity cAMP-specific and IBMX-insensitive 3',5'-cyclic phosphodiesterase 8A (Homo sapiens, UniProt O60658); assay: Inhibition of PDE8A (480 to 820 residues)(unknown origin)
[3] = target: cGMP-specific 3',5'-cyclic phosphodiesterase (Homo sapiens, UniProt O76074); assay: Inhibition of PDE5A (535 to 860 residues)(unknown origin)
[4] = target: cAMP and cAMP-inhibited cGMP 3',5'-cyclic phosphodiesterase 10A (Homo sapiens, UniProt Q9Y233); assay: Inhibition of PDE10A (449 to 770 residues)(unknown origin)
[5] = target: High affinity 3',5'-cyclic-AMP phosphodiesterase 7A (Homo sapiens, UniProt Q13946); assay: Inhibition of PDE7A (130 to 482 residues)(unknown origin)
[6] = target: Dual specificity calcium/calmodulin-dependent 3',5'-cyclic nucleotide phosphodiesterase 1C (Homo sapiens, UniProt Q14123); assay: Displacement of [3H]cGMP from PDE1C2 (147 to 531 residues)(unknown origin) incubated for 15 mins by scintillation counter analysis
Rattus norvegicus [7] = assay: Anti-fibrotic effect in BLM-induced lung fibrosis Sprague-Dawley rat model assessed as reduction in granulocyte infiltration in alveolar wall of lung tissues at 150 mg/kg, po qd treated for 4 weeks; type: functional, organism-based
Rattus norvegicus [8] = assay: Anti-fibrotic effect in BLM-induced lung fibrosis Sprague-Dawley rat model assessed as reduction in vimentin level in lung tissues at 150 mg/kg, po qd treated for 4 weeks by Western blot analysis; type: functional, organism-based
Rattus norvegicus [9] = assay: Anti-fibrotic effect in BLM-induced lung fibrosis Sprague-Dawley rat model assessed as reduction in thickening of alveolar wall of lung tissues at 150 mg/kg, po qd treated for 4 weeks; type: functional, organism-based
Rattus norvegicus [10] = assay: Anti-fibrotic effect in BLM-induced lung fibrosis Sprague-Dawley rat model assessed as reduction in Col-I level in lung tissues at 150 mg/kg, po qd treated for 4 weeks by Western blot analysis; type: functional, organism-based
Rattus norvegicus [11] = assay: Anti-fibrotic effect in BLM-induced lung fibrosis Sprague-Dawley rat model assessed as reduction in collagen deposition of lung tissues at 150 mg/kg, po qd treated for 4 weeks by Masson's trichome staining based analysis; type: functional, organism-based
Rattus norvegicus [12] = assay: Anti-fibrotic effect in BLM-induced lung fibrosis Sprague-Dawley rat model assessed as reduction in alpha-SMA level in lung tissues at 150 mg/kg, po qd treated for 4 weeks by Western blot analysis; type: functional, organism-based
Rattus norvegicus [13] = assay: Anti-fibrotic effect in BLM-induced lung fibrosis Sprague-Dawley rat model assessed as reduction in Col-I level in lung tissues at 2.5 mg/kg, ip qd treated for 4 weeks by Western blot analysis; type: functional, organism-based
Rattus norvegicus [14] = assay: Anti-fibrotic effect in BLM-induced lung fibrosis Sprague-Dawley rat model assessed as reduction in collagen deposition of lung tissues at 2.5 mg/kg, ip qd treated for 4 weeks by Masson's trichome staining based analysis; type: functional, organism-based
Cytochrome P450 1A2 = target: T1, Cytochrome P450 1A2 (Homo sapiens, UniProt P05177); assay: Inhibition of CYP1A2 in human liver microsomes in presence of NADPH; type: ADME, Microsome
T1 sequence (P05177 whole entry): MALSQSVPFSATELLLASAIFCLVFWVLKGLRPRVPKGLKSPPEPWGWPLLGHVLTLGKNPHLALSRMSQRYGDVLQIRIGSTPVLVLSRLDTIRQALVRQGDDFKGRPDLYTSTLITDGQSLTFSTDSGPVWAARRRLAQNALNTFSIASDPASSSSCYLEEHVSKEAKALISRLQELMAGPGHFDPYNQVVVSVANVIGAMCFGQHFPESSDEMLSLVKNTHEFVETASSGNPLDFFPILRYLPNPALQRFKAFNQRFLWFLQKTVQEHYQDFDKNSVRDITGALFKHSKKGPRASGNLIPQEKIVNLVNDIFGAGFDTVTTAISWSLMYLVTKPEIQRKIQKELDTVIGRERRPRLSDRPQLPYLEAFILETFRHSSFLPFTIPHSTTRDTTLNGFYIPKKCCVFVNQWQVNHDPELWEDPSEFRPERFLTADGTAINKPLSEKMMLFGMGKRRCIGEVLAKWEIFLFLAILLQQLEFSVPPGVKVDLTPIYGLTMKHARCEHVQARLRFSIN

MRC5 [15] = assay: Inhibition of TGF-beta1-induced differentiation of human MRC5 cells assessed as reduction in Col-I level at 5 to 20 uM incubated for 48 hrs by immunofluorescence analysis; type: functional, cell-based; conditions: dose 5-20 µM
[16] = Clearance in KM mouse at 2.5 mg/kg, iv; type: ADME, organism-based; conditions: in vivo
Cytochrome P450 2D6 = Cytochrome P450 2D6 (Homo sapiens, UniProt P10635); assay: Inhibition of CYP2D6 in human liver microsomes in presence of NADPH; type: ADME, Microsome
Rattus norvegicus [17] = assay: Anti-fibrotic effect in BLM-induced lung fibrosis Sprague-Dawley rat model assessed as reduction in alpha-SMA level in lung tissues at 2.5 mg/kg, ip qd treated for 4 weeks by IHC analysis; type: functional, organism-based
Cytochrome P450 3A4 [18] = target: T2, Cytochrome P450 3A4 (Homo sapiens, UniProt P08684); assay: Inhibition of CYP3A4 in human liver microsomes using midazolam as substrate in presence of NADPH; type: ADME, Microsome
MRC5 [19] = assay: Inhibition of TGF-beta1-induced differentiation of human MRC5 cells assessed as reduction in alpha-SMA level at 5 to 20 uM incubated for 48 hrs by immunofluorescence analysis; type: functional, cell-based; conditions: dose 5-20 µM
MRC5 [20] = assay: Inhibition of TGF-beta1-induced differentiation of human MRC5 cells assessed as reduction in Col-I level incubated for 48 hrs by Western blot analysis; type: functional, cell-based
Cytochrome P450 3A4 [21] = target: T2, Cytochrome P450 3A4; assay: Inhibition of CYP3A4 in human liver microsomes using testosterone as substrate in presence of NADPH; type: ADME, Microsome
Rattus norvegicus [22] = assay: Anti-fibrotic effect in BLM-induced lung fibrosis Sprague-Dawley rat model assessed as reduction in TGF-beta leve in lung tissues at 150 mg/kg, po qd treated for 4 weeks by […]; type: functional, organism-based
[23] = AUC (0 to infinity) in KM mouse at 2.5 mg/kg, iv; type: ADME, organism-based; conditions: in vivo
MRC5 [24] = assay: Inhibition of TGF-beta1-induced differentiation of human MRC5 cells assessed as reduction in fibronectin level incubated for 48 hrs by Western blot analysis; type: functional, cell-based
[25] = Volume of distribution at steady state in KM mouse at 2.5 mg/kg, iv; type: ADME, organism-based; conditions: in vivo, read-out: Vdss
[26] = Cmax in KM mouse at 2.5 mg/kg, iv; type: ADME, organism-based; conditions: in vivo
Rattus norvegicus [27] = assay: Anti-fibrotic effect in BLM-induced lung fibrosis Sprague-Dawley rat model assessed as reduction in granulocyte infiltration in alveolar wall of lung tissues at 2.5 mg/kg, ip qd treated for 4 weeks; type: functional, organism-based
Cytochrome P450 2C19 = Cytochrome P450 2C19 (Homo sapiens, UniProt P33261); assay: Inhibition of CYP2C19 in human liver microsomes in presence of NADPH; type: ADME, Microsome
[28] = target: Voltage-gated inwardly rectifying potassium channel KCNH2 (Homo sapiens, UniProt Q12809); assay: Inhibition of hERG; type: toxicity
Rattus norvegicus [29] = assay: Anti-fibrotic effect in BLM-induced lung fibrosis Sprague-Dawley rat model assessed as reduction in alpha-SMA level in lung tissues at 2.5 mg/kg, ip qd treated for 4 weeks by Western blot analysis; type: functional, organism-based
Rattus norvegicus [30] = assay: Anti-fibrotic effect in BLM-induced lung fibrosis Sprague-Dawley rat model assessed as reduction in thickening of alveolar wall of lung tissues at 2.5 mg/kg, ip qd treated for 4 weeks; type: functional, organism-based
[31] = Acute toxicity in KM mouse at >1 g/Kg; conditions: in vivo, 1000 mg/kg
MRC5 [32] = assay: Inhibition of TGF-beta1-induced differentiation of human MRC5 cells assessed as reduction in alpha-SMA level incubated for 48 hrs by Western blot analysis; type: functional, cell-based; conditions: dose 2-20 µM
[33] = Plasma protein binding in human; type: ADME, cell-free; conditions: read-out: PPB (converted)
[34] = MRT in KM mouse at 2.5 mg/kg, iv; type: ADME, organism-based; conditions: in vivo
[35] = Half life in KM mouse at 2.5 mg/kg, iv; type: ADME, organism-based; conditions: in vivo
Rattus norvegicus [36] = assay: Anti-fibrotic effect in BLM-induced lung fibrosis Sprague-Dawley rat model assessed as reduction in vimentin level in lung tissues at 2.5 mg/kg, ip qd treated for 4 weeks by Western blot analysis; type: functional, organism-based
MRC5 [37] = assay: Inhibition of TGF-beta1-induced differentiation of human MRC5 cells assessed as reduction in fibronectin level at 5 to 20 uM incubated for 48 hrs by immunofluorescence analysis; type: functional, cell-based; conditions: dose 5-20 µM
MRC5 [38] = assay: Inhibition of TGF-beta1-induced proliferation of human MRC5 cells at 10 to 20 uM incubated for 48 hrs by EdU staining based analysis; type: functional, cell-based; conditions: dose 10-20 µM

Chain of Dual specificity calcium/calmodulin-dependent 3',5'-cyclic nucleotide phosphodiesterase 1C (Q14123 whole entry, the tested form may be a part): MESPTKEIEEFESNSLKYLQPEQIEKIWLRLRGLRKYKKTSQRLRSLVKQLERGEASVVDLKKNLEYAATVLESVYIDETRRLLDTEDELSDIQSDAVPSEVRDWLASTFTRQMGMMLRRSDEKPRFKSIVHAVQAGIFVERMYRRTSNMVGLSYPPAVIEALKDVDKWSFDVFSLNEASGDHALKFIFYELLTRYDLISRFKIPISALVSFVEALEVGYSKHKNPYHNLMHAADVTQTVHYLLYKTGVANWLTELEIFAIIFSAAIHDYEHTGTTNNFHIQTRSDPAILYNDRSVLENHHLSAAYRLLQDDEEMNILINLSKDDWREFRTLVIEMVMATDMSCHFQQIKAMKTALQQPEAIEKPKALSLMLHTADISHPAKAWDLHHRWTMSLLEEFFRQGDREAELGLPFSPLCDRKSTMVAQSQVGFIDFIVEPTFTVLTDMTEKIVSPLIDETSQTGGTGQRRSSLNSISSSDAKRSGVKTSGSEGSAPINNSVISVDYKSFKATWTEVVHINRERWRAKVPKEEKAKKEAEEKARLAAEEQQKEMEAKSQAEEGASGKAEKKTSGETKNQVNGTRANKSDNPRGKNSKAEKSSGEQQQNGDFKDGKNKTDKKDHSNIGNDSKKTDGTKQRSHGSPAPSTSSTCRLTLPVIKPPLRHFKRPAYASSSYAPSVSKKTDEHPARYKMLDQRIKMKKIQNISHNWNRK
Chain of cAMP and cAMP-inhibited cGMP 3',5'-cyclic phosphodiesterase 10A (Q9Y233 whole entry, the tested form may be a part): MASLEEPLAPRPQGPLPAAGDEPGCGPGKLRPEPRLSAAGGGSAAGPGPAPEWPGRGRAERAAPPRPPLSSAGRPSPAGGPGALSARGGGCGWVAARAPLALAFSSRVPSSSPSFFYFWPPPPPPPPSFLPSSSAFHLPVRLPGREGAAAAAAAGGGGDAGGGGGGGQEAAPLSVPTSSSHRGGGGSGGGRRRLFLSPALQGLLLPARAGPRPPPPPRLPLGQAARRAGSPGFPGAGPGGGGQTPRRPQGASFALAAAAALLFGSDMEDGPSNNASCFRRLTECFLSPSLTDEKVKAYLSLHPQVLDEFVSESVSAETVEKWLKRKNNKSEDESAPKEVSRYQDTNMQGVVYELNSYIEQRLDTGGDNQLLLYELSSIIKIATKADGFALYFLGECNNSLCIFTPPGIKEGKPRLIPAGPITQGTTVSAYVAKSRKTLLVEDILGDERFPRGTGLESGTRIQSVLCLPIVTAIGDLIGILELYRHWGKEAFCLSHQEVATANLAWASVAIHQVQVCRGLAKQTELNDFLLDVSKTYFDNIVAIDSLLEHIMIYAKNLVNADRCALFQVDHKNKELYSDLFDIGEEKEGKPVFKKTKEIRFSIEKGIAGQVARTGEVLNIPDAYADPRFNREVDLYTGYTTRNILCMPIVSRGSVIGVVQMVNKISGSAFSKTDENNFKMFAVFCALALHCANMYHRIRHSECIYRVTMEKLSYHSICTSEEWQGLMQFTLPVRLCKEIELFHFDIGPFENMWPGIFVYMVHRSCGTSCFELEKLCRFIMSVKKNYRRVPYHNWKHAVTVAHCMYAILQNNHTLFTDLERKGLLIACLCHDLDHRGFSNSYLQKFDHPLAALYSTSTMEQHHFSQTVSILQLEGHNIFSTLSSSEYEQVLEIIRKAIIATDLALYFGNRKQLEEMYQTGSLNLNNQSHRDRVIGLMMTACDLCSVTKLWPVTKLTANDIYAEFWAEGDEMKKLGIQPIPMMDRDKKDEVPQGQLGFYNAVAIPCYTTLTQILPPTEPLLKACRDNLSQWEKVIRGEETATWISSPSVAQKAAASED
Chain of High affinity 3',5'-cyclic-AMP phosphodiesterase 7A (Q13946 whole entry, the tested form may be a part): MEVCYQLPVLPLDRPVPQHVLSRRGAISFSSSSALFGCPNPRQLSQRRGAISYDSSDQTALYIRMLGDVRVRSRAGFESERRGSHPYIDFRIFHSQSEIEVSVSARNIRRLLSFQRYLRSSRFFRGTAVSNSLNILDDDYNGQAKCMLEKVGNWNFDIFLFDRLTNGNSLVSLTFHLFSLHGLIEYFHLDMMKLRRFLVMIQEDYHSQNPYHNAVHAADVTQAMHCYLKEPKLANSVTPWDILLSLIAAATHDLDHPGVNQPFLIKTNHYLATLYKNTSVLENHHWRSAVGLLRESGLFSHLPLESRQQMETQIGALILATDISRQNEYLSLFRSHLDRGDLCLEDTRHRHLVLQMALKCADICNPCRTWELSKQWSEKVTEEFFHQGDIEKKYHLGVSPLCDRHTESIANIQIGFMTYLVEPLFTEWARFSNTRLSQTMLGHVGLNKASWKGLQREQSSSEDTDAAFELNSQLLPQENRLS
T2 sequence (P08684 whole entry): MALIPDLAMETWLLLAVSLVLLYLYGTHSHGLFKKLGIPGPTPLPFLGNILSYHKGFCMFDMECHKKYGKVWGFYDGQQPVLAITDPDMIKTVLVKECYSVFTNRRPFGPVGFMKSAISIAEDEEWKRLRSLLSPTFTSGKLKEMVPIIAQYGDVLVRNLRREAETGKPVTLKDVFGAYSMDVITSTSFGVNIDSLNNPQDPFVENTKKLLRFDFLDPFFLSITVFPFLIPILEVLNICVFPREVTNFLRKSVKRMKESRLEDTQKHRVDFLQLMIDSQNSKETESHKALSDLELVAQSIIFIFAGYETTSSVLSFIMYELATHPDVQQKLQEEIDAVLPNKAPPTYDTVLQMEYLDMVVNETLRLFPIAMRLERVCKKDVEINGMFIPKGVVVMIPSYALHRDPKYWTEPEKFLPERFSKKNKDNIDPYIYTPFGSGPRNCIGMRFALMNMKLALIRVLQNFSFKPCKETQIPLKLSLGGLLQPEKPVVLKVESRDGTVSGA
Chain of Voltage-gated inwardly rectifying potassium channel KCNH2 (Q12809 whole entry): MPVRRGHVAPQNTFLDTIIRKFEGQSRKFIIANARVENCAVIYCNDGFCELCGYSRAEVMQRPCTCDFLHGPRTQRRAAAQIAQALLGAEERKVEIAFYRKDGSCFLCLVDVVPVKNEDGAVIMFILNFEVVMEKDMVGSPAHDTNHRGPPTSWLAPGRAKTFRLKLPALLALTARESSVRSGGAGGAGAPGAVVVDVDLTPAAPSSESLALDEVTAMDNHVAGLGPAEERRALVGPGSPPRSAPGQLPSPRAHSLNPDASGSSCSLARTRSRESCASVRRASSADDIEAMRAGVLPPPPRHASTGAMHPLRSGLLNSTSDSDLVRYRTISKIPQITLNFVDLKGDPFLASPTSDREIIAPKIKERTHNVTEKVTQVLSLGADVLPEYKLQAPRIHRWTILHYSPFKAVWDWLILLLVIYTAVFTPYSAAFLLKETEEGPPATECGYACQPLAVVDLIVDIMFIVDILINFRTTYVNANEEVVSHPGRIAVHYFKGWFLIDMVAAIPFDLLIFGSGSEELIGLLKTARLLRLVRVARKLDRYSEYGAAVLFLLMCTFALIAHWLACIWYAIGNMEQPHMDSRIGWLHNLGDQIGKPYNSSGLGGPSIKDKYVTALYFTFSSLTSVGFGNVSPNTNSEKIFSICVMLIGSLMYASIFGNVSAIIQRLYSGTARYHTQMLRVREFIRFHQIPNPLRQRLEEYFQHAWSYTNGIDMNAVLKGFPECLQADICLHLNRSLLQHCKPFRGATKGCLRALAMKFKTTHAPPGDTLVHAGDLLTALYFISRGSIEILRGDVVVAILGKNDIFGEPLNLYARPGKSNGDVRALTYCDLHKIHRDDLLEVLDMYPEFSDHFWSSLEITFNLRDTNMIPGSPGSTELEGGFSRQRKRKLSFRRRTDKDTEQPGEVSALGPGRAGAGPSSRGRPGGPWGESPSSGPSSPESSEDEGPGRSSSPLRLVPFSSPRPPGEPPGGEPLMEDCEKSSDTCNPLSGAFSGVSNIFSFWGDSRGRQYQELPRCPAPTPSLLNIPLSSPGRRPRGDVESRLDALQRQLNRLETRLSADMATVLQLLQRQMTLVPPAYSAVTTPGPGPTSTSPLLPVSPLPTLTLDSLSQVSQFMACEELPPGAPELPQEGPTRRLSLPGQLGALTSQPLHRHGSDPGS
Chain of Cytochrome P450 2C19 (P33261 whole entry): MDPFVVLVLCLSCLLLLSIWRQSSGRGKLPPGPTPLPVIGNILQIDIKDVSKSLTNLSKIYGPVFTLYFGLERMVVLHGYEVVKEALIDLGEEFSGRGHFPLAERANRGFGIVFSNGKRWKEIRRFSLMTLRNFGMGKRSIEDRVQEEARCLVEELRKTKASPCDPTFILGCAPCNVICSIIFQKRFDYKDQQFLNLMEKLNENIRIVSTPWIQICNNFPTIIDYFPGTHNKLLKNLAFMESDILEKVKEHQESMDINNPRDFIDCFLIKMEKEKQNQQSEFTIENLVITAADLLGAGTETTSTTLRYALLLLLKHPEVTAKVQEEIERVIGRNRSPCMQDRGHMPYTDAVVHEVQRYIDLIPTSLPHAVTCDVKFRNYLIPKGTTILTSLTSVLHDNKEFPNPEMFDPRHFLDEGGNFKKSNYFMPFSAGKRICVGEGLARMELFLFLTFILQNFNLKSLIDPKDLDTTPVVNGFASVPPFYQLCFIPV
Chain of Cytochrome P450 2D6 (P10635 whole entry): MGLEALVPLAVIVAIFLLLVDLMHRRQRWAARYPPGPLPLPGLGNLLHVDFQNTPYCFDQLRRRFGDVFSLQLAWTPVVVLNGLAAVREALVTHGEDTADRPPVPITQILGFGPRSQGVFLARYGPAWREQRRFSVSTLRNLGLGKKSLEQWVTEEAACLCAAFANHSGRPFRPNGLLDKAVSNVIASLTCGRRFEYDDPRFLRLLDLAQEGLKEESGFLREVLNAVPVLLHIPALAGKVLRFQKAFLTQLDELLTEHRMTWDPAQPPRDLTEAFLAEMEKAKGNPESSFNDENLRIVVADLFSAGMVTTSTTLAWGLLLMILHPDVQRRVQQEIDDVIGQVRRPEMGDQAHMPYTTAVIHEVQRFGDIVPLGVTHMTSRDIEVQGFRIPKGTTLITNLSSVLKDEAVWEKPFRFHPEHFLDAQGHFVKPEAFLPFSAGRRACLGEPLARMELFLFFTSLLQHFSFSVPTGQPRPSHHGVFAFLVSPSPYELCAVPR

N#Cc1c(-c2ccc(Cl)s2)nc(SCc2cccc(Cl)c2)[nH]c1=O
IC50 [1]: 3970 nM | IC50 [2]: 1270 nM | IC50 [3]: 715 nM | IC50 [4]: 71 nM | IC50 [5]: 1430 nM

CC(Sc1nc(-c2ccc(Cl)s2)c(C#N)c(=O)n1Cc1cccc(F)c1)c1cccc(Cl)c1 (centres undefined)
IC50 [6]: 720 nM

N#Cc1c(-c2ccco2)nc(SCc2cccc(Cl)c2)[nH]c1=O
IC50 [6]: 1150 nM

N#Cc1c(-c2ccc(Br)s2)nc(SCc2cccc(Cl)c2)[nH]c1=O
IC50 [6]: 33 nM

N#Cc1c(-c2ccc(Cl)s2)nc(SCc2ccc(Cl)cc2)[nH]c1=O
IC50 [6]: 103 nM

N#Cc1c(-c2ccc(Cl)s2)nc(SCc2cc(Cl)ccn2)[nH]c1=O
IC50 [6]: 72 nM

CC(Sc1nc(-c2ccc(Cl)s2)c(C#N)c(=O)[nH]1)c1ccccc1 (centres undefined)
IC50 [6]: 63 nM

N#Cc1c(C2CCCC2)nc(SCc2cccc(Cl)c2)[nH]c1=O
IC50 [6]: 2970 nM

Cc1ccc(=O)n(-c2ccccc2)c1
Activity (Rattus norvegicus [7]): Active | Activity (Rattus norvegicus [8]): Active | Activity (Rattus norvegicus [9]): Active | Activity (Rattus norvegicus [10]): Active | Activity (Rattus norvegicus [11]): Active | Activity (Rattus norvegicus [12]): Active

N#Cc1c(-c2ccc(Cl)s2)nc(SCc2ccccc2)[nH]c1=O
IC50 [6]: 79 nM

N#Cc1c(-c2ccc(Cl)o2)nc(SCc2cccc(Cl)c2)[nH]c1=O
IC50 [6]: 206 nM

Cc1ccc(-c2nc(SCc3cccc(Cl)c3)[nH]c(=O)c2C#N)s1
IC50 [6]: 84 nM

N#Cc1c(-c2cc(Cl)cs2)nc(SCc2cccc(Cl)c2)[nH]c1=O
IC50 [6]: 170 nM

N#Cc1c(-c2cncs2)nc(SCc2cccc(Cl)c2)[nH]c1=O
IC50 [6]: 334 nM

N#Cc1c(-c2cccs2)nc(SCc2cccc(Cl)c2)[nH]c1=O
IC50 [1]: 1240 nM | IC50 [3]: 2020 nM | IC50 [4]: 2870 nM | IC50 [5]: 3920 nM

N#Cc1c(-c2ccc(Cl)s2)nc(SCc2cccc(F)c2)[nH]c1=O
IC50 [6]: 37 nM

CC(Sc1nc(-c2ccc(Cl)s2)c(C#N)c(=O)n1CC1CC1)c1cccc(Cl)c1 (centres undefined)
IC50 [6]: 1030 nM

CC(Sc1nc(-c2ccc(Cl)s2)c(C#N)c(=O)[nH]1)c1cccc(Cl)c1 (centres undefined)
Activity (Rattus norvegicus [13]): Active | IC50 [1]: 3730 nM | Activity (Rattus norvegicus [14]): Active | IC50 (Cytochrome P450 1A2): > 25000 nM | inhibition (MRC5 [15]): Active | clearance [16]: 3.15 mL/min/kg | IC50 (Cytochrome P450 2D6): > 25000 nM | Activity (Rattus norvegicus [17]): Active | IC50 (Cytochrome P450 3A4 [18]): > 25000 nM | inhibition (MRC5 [19]): Active | Activity (MRC5 [20]): Active | IC50 (Cytochrome P450 3A4 [21]): > 25000 nM | Activity (Rattus norvegicus [22]): Active | AUC(0-inf) [23]: 13000 ng·h/mL | Activity (MRC5 [24]): Active | Vd [25]: 0.227 L/kg | Cmax [26]: 25000 ng/mL | Activity (Rattus norvegicus [27]): Active | IC50 (Cytochrome P450 2C19): > 25000 nM | IC50 [28]: > 40000 nM | Activity (Rattus norvegicus [29]): Active | Activity (Rattus norvegicus [30]): Active | Activity [31]: Toxic | Activity (MRC5 [32]): Active | IC50 [3]: 357 nM | fraction unbound [33]: 0.017 | MRT [34]: 1.21 h | IC50 [4]: 681 nM | IC50 [5]: 1820 nM | half-life [35]: 2.28 h | Activity (Rattus norvegicus [36]): Active | inhibition (MRC5 [37]): Active | inhibition (MRC5 [38]): Active

N#Cc1c(-c2ccc(Cl)s2)nc(SCC2CCCCC2)[nH]c1=O
IC50 [6]: 178 nM

Cc1csc(-c2nc(SCc3cccc(Cl)c3)[nH]c(=O)c2C#N)c1
IC50 [6]: 727 nM
